Assay results: patent US20100197712A1, “USE OF DOPAMINE STABILIZERS” (priority 2007, published 2010)
Where a name gives a salt, the structure may show the parent alone.

Tests used:
habituated rats = assay: Motor activity of habituated rats in activity boxes; format: in vivo, Sprague-Dawley rats; conditions: s.c.
Description: (§1) Prior to testing, the rats were housed for approximately 1 week with free access to food and water, in groups of four or five in Macrolon type III cages in the animal facility of the Sahlgrenska Academy at Göteborg University. The experiments were approved by the animal ethics committee in Göteborg.
(§2) OSU6162, ACR16, apomorphine and (−)-3-PPP were dissolved in 0.9% saline. A few grains of ascorbic acid were added to apomorphine solutions to prevent oxidation of the drug. Haloperidol and amisulpride were dissolved in a minimum amount of acetic acid and diluted with 5.5% glucose. The solutions were adjusted to pH 5-7 with sodium bicarbonate. Aripiprazole was dissolved in a minimum amount of heated acetic acid, diluted in warm 5.5% glucose and adjusted to pH 4-5. All drugs were administered intraperitoneally (i.p.) or subcutaneously (s.c.) in volumes of 5 ml/kg. Control treatments consisted of the appropriate vehicle administered in accordance with the drug treatment at issue.
Rats were housed in a normal daylight cycle and testing was performed during daytime. Animals were introduced into sound attenuated, illuminated activity boxes (1/w/h: 40×40×20 cm) and were allowed to habituate in the new environment for 65 minutes. During the following 5 minutes test drugs were injected s.c., after which the rats were returned to the boxes for another 60 minutes. Five by five rows of photocell beams at floor level allowed a computer based-system to register horizontal activity. Motor activity is presented as accumulated number of unrepeated beam breaks, i.e. several consecutive breakings of one beam is counted as one beam break. The software was set to register behaviour from the rat's first introduction into the arena until it was finally removed from the box, i.e. for 130 minutes. Activity is presented separately for t=0-30 min and t=30-60 min after injection.
(§3) In several cases data from two or more experiments have been pooled. […] Confirmed outlying values (N=0-3 per experiment) were excluded from statistical analyses and graphical presentations. Data from the video tracking setting was analyzed with univariate general linear model (GLM). Following GLM analysis, comparisons versus the appropriate control groups were performed with Dunnet's post hoc test. […] Data obtained from activity boxes was analyzed with Kruskal-Wallis one-way analysis of variance by ranks. […] All statistical tests were two sided and p<0.05 was considered statistically significant.

active rats = assay: Video tracking: motor activity (velocity) of active rats; format: in vivo, Sprague-Dawley rats
Description: as §1, §2
(§4) The rats were housed in reverse daylight cycle and all handling of the animals was performed in dim light. Apomorphine was administered s.c. 5 minutes prior to testing, while all other drugs were injected i.p. or s.c. 30 minutes before testing. Single rats were introduced into rectangular arenas (l/w/h: 150×100×40 cm) illuminated indirectly by one infrared lamp (Neocom, South Korea). The rats' movements were recorded to digital (MPEG2) video files using an IR sensitive video camera (Panasonic WV-CPR480, lens: Panasonic LA-408C3) connected to a PC equipped with a MPEG-encoder (MVR1000^SX, Canopus Co.). […] Behavioural variables were extracted from the tracks in MatLab (The MathWorks, Inc., USA) with functions developed in this laboratory. Mean velocity was used to measure motor activity. Prior to calculation of velocity the tracks were subjected to a running mean filter, i.e. each sample was replaced by the mean of fifteen consecutive samples.
as §3

[1] = tested on: apomorphine induced hypomotility in rats; assay: Apomorphine induced hypomotility in rats (video tracking); format: in vivo, Sprague-Dawley rats
Description: FIG. 7. […] Test drugs were administered 30 minutes prior to registration. Motor activity was measured for 30 minutes as velocity in the video tracking setting. Statistical comparisons were made versus the apomorphine group with univariate general linear model, followed by Dunnet's post hoc test. *p<0.05; *p<0.01; ***p<0.001. FIG. 8.
as §4, §3

[2] = Hartter et al., 2003; cited from earlier work
[3] = tested on: amphetamine-induced hyperactivity in rats; conditions: Natesan et al., 2006; cited from earlier work
rats = conditions: small activity boxes; pre-treatment 30 minutes; dark hours, light turned off; preliminary
[4] = i.p., 30 min prior to 30 min tracking
[5] = whole 60 min registration / either time interval
[6] = apomorphine 0.16 μmol/kg s.c., test drug i.p. 30 min prior, dose range per drug

Structure (SMILES)	motor activity (accumulated unrepeated beam breaks) (habituated rats; t=0-30 min after injection)	motor activity (accumulated unrepeated beam breaks) (habituated rats; t=30-60 min after injection)	motor activity (velocity) (active rats; [4])	motor activity (accumulated unrepeated beam breaks) (habituated rats; [5])	effect on apomorphine-induced hypomotility [1, 6]	other results
O=C1CCc2ccc(OCCCCN3CCN(c4cccc(Cl)c4Cl)CC3)cc2N1 [aripiprazole, reference compound]	dose-dependent inhibition during the first 30 minutes after injection, which was statistically significant at the highest dose	did not affect locomotor activity	marked and dose-dependent inhibition on motor activity, that was statistically significant at all doses tested			
O=C(CCCN1CCC(O)(c2ccc(Cl)cc2)CC1)c1ccc(F)cc1 [haloperidol, reference compound]			statistically significant inhibition at the highest dose	Neither haloperidol (0.1-0.8 μmol/kg) nor amisulpride (33-300 μmol/kg) had any significant effects on motor activity	no statistically significant effects on motor activity	motor activity relative to control (active rats; haloperidol 0.8 μmol/kg, s.c.): approximately 7 % of control level
CN1CCc2cccc3c2[C@H]1Cc1ccc(O)c(O)c1-3 [apomorphine, R-(−)-Apomorphine hydrochloride hemihydrate]						locomotor activity (velocity) (active rats; apomorphine 0.04-0.16 μmol/kg s.c., 5 min prior to registration): dose dependent inhibiting effect on locomotor activity; motor activity (velocity) (active rats; apomorphine higher dose-interval 0.16-64 μmol/kg s.c.): motor activity began to return towards a level similar to that observed in controls; dose of maximal inhibition of motor activity (active rats; apomorphine s.c.): 0.16 µmol/kg
CCN1CCCC1CNC(=O)c1cc(S(=O)(=O)CC)c(N)cc1OC (stereo not shown) [amisulpride, reference compound]			inhibited motor activity slightly at the highest dose tested	Neither haloperidol (0.1-0.8 μmol/kg) nor amisulpride (33-300 μmol/kg) had any significant effects on motor activity	effectively counteracted apomorphine-induced hypoactivity	penetration of biological membranes [2]: poor penetration of biological membranes; effect on apomorphine-induced hypomotility ([1]; amisulpride 270 μmol/kg, s.c., data not shown): a mere tendency towards reversal of apomorphine-induced hypoactivity
CCCN1CCC[C@@H](c2cccc(O)c2)C1 [(−)-3-PPP, S-(−)-3-[3-hydroxyphenyl]-1-propylpiperidine, reference compound]				did not have any statistically significant effects on motor activity in either time interval		motor activity (velocity) (active rats; s.c., 30 min prior to 30 min tracking, OSU6162 50-200 μmol, (−)-3-PPP 2.5 and 10 μmol/kg): marked and dose-dependent inhibition on motor activity, that was statistically significant at all doses tested
CCCN1CCC(c2cccc(S(C)(=O)=O)c2)CC1 [ACR16, 4-(3-methanesulfonylphenyl)-1-propyl-piperidine]	this effect increased dose-dependently	the effect appeared to peak at the dose 50 μmol/kg	dose-dependent and statistically significant reduction of motor activity	caused an activation, although smaller than that of OSU6162	did not have any noticeable effect on apomorphine-induced hypoactivity	effect on amphetamine-induced hyperactivity [3]: reverse amphetamine-induced hyperactivity; effect on apomorphine-induced hypomotility ([1]; apomorphine 0.08 μmol/kg s.c., ACR16 i.p., higher dose): tended to inhibit activity further; motor activity (rats): marked reduction in motor activity
